# ± gives the expanded uncertainty stated by the source.
# Experiment: xn = mol fraction of the nth substance listed
# Settings: 101 kPa, Liquid; for viscosity: Capillary tube (Ostwald / Ubbelohde) method; for mass density: Vibrating tube method
structure (smiles),measurement,setting,value
CCCCCC(C)O (centres undefined) [2-heptanol] + OCCOCCO,viscosity,"298.15 K, x2 = 0",5.02 ± 0.2 mPa·s
same,viscosity,"298.15 K, x2 = 0.0807",5.22 ± 0.21 mPa·s
same,viscosity,"298.15 K, x2 = 0.1596",5.27 ± 0.21 mPa·s
same,viscosity,"298.15 K, x2 = 0.2397",5.38 ± 0.22 mPa·s
same,viscosity,"298.15 K, x2 = 0.3501",5.94 ± 0.24 mPa·s
same,viscosity,"298.15 K, x2 = 0.4398",6.95 ± 0.28 mPa·s
same,viscosity,"298.15 K, x2 = 0.5602",9.32 ± 0.38 mPa·s
same,viscosity,"298.15 K, x2 = 0.6501",11.89 ± 0.48 mPa·s
same,viscosity,"298.15 K, x2 = 0.7402",15.13 ± 0.61 mPa·s
same,viscosity,"298.15 K, x2 = 0.8501",19.86 ± 0.8 mPa·s
same,viscosity,"298.15 K, x2 = 0.9397",24.15 ± 0.98 mPa·s
same,mass density,"298.15 K, x2 = 0",813.2 ± 0.1 kg/m3
same,mass density,"298.15 K, x2 = 0.0807",829.4 ± 0.2 kg/m3
same,mass density,"298.15 K, x2 = 0.1596",846.1 ± 0.2 kg/m3
same,mass density,"298.15 K, x2 = 0.2397",864.1 ± 0.2 kg/m3
same,mass density,"298.15 K, x2 = 0.3501",890.9 ± 0.2 kg/m3
same,mass density,"298.15 K, x2 = 0.4398",914.4 ± 0.2 kg/m3
same,mass density,"298.15 K, x2 = 0.5602",948.9 ± 0.2 kg/m3
same,mass density,"298.15 K, x2 = 0.6501",977.1 ± 0.2 kg/m3
same,mass density,"298.15 K, x2 = 0.7402",1007.7 ± 0.2 kg/m3
same,mass density,"298.15 K, x2 = 0.8501",1048.8 ± 0.3 kg/m3
same,mass density,"298.15 K, x2 = 0.9397",1085.7 ± 0.3 kg/m3
same,viscosity,"303.15 K, x2 = 0",4.15 ± 0.17 mPa·s
same,viscosity,"303.15 K, x2 = 0.0807",4.45 ± 0.18 mPa·s
same,viscosity,"303.15 K, x2 = 0.1596",4.66 ± 0.19 mPa·s
same,viscosity,"303.15 K, x2 = 0.2397",4.89 ± 0.2 mPa·s
same,viscosity,"303.15 K, x2 = 0.3501",5.44 ± 0.22 mPa·s
same,viscosity,"303.15 K, x2 = 0.4398",6.21 ± 0.25 mPa·s
same,viscosity,"303.15 K, x2 = 0.5602",7.87 ± 0.32 mPa·s
same,viscosity,"303.15 K, x2 = 0.6501",9.69 ± 0.39 mPa·s
same,viscosity,"303.15 K, x2 = 0.7402",12.04 ± 0.49 mPa·s
same,viscosity,"303.15 K, x2 = 0.8501",15.65 ± 0.63 mPa·s
same,viscosity,"303.15 K, x2 = 0.9397",19.2 ± 0.78 mPa·s
same,mass density,"303.15 K, x2 = 0",809.3 ± 0.1 kg/m3
same,mass density,"303.15 K, x2 = 0.0807",825.2 ± 0.2 kg/m3
same,mass density,"303.15 K, x2 = 0.1596",841.8 ± 0.2 kg/m3
same,mass density,"303.15 K, x2 = 0.2397",859.8 ± 0.2 kg/m3
same,mass density,"303.15 K, x2 = 0.3501",886.5 ± 0.2 kg/m3
same,mass density,"303.15 K, x2 = 0.4398",910.1 ± 0.2 kg/m3
same,mass density,"303.15 K, x2 = 0.5602",944.5 ± 0.2 kg/m3
same,mass density,"303.15 K, x2 = 0.6501",972.8 ± 0.2 kg/m3
same,mass density,"303.15 K, x2 = 0.7402",1003.6 ± 0.2 kg/m3
same,mass density,"303.15 K, x2 = 0.8501",1044.9 ± 0.3 kg/m3
same,mass density,"303.15 K, x2 = 0.9397",1082.1 ± 0.3 kg/m3
same,viscosity,"308.15 K, x2 = 0",3.48 ± 0.14 mPa·s
same,viscosity,"308.15 K, x2 = 0.0807",3.98 ± 0.16 mPa·s
same,viscosity,"308.15 K, x2 = 0.1596",4.23 ± 0.17 mPa·s
same,viscosity,"308.15 K, x2 = 0.2397",4.39 ± 0.18 mPa·s
same,viscosity,"308.15 K, x2 = 0.3501",4.7 ± 0.19 mPa·s
same,viscosity,"308.15 K, x2 = 0.4398",5.2 ± 0.21 mPa·s
same,viscosity,"308.15 K, x2 = 0.5602",6.43 ± 0.26 mPa·s
same,viscosity,"308.15 K, x2 = 0.6501",7.84 ± 0.32 mPa·s
same,viscosity,"308.15 K, x2 = 0.7402",9.71 ± 0.39 mPa·s
same,viscosity,"308.15 K, x2 = 0.8501",12.54 ± 0.51 mPa·s
same,viscosity,"308.15 K, x2 = 0.9397",15.27 ± 0.62 mPa·s
same,mass density,"308.15 K, x2 = 0",805 ± 0.2 kg/m3
same,mass density,"308.15 K, x2 = 0.0807",820.9 ± 0.2 kg/m3
same,mass density,"308.15 K, x2 = 0.1596",837.5 ± 0.2 kg/m3
same,mass density,"308.15 K, x2 = 0.2397",855.3 ± 0.2 kg/m3
same,mass density,"308.15 K, x2 = 0.3501",881.9 ± 0.2 kg/m3
same,mass density,"308.15 K, x2 = 0.4398",905.3 ± 0.2 kg/m3
same,mass density,"308.15 K, x2 = 0.5602",939.8 ± 0.2 kg/m3
same,mass density,"308.15 K, x2 = 0.6501",968.2 ± 0.2 kg/m3
same,mass density,"308.15 K, x2 = 0.7402",999.1 ± 0.2 kg/m3
same,mass density,"308.15 K, x2 = 0.8501",1040.6 ± 0.2 kg/m3
same,mass density,"308.15 K, x2 = 0.9397",1078.4 ± 0.3 kg/m3
same,viscosity,"313.15 K, x2 = 0",2.85 ± 0.12 mPa·s
same,viscosity,"313.15 K, x2 = 0.0807",3.04 ± 0.12 mPa·s
same,viscosity,"313.15 K, x2 = 0.1596",3.21 ± 0.13 mPa·s
same,viscosity,"313.15 K, x2 = 0.2397",3.42 ± 0.14 mPa·s
same,viscosity,"313.15 K, x2 = 0.3501",3.87 ± 0.16 mPa·s
same,viscosity,"313.15 K, x2 = 0.4398",4.45 ± 0.18 mPa·s
same,viscosity,"313.15 K, x2 = 0.5602",5.64 ± 0.23 mPa·s
same,viscosity,"313.15 K, x2 = 0.6501",6.89 ± 0.28 mPa·s
same,viscosity,"313.15 K, x2 = 0.7402",8.46 ± 0.34 mPa·s
same,viscosity,"313.15 K, x2 = 0.8501",10.82 ± 0.44 mPa·s
same,viscosity,"313.15 K, x2 = 0.9397",13.1 ± 0.53 mPa·s
same,mass density,"313.15 K, x2 = 0",801.1 ± 0.2 kg/m3
same,mass density,"313.15 K, x2 = 0.0807",817 ± 0.2 kg/m3
same,mass density,"313.15 K, x2 = 0.1596",833.5 ± 0.2 kg/m3
same,mass density,"313.15 K, x2 = 0.2397",851.2 ± 0.2 kg/m3
same,mass density,"313.15 K, x2 = 0.3501",877.7 ± 0.2 kg/m3
same,mass density,"313.15 K, x2 = 0.4398",901.2 ± 0.2 kg/m3
same,mass density,"313.15 K, x2 = 0.5602",935.5 ± 0.2 kg/m3
same,mass density,"313.15 K, x2 = 0.6501",963.9 ± 0.2 kg/m3
same,mass density,"313.15 K, x2 = 0.7402",994.9 ± 0.2 kg/m3
same,mass density,"313.15 K, x2 = 0.8501",1036.6 ± 0.2 kg/m3
same,mass density,"313.15 K, x2 = 0.9397",1074.6 ± 0.3 kg/m3
OCCOCCO [diethylene glycol] + CCCCCC(C)O,viscosity,"298.15 K, x1 = 1",27.14 ± 1.1 mPa·s
same,mass density,"298.15 K, x1 = 1",1112.4 ± 0.3 kg/m3
same,viscosity,"303.15 K, x1 = 1",21.87 ± 0.89 mPa·s
same,mass density,"303.15 K, x1 = 1",1109.1 ± 0.3 kg/m3
same,viscosity,"308.15 K, x1 = 1",17.26 ± 0.7 mPa·s
same,mass density,"308.15 K, x1 = 1",1105.6 ± 0.3 kg/m3
same,viscosity,"313.15 K, x1 = 1",14.81 ± 0.6 mPa·s
same,mass density,"313.15 K, x1 = 1",1102.3 ± 0.3 kg/m3
CCCC(C)O (centres undefined) [pentan-2-ol] + OCCOCCO,viscosity,"298.15 K, x2 = 0",3.2 ± 0.13 mPa·s
same,mass density,"298.15 K, x2 = 0",805.4 ± 0.2 kg/m3
same,viscosity,"303.15 K, x2 = 0",2.8 ± 0.11 mPa·s
same,mass density,"303.15 K, x2 = 0",801.2 ± 0.2 kg/m3
same,viscosity,"308.15 K, x2 = 0",2.33 ± 0.09 mPa·s
same,mass density,"308.15 K, x2 = 0",796.6 ± 0.2 kg/m3
same,viscosity,"313.15 K, x2 = 0",1.99 ± 0.08 mPa·s
same,mass density,"313.15 K, x2 = 0",792.5 ± 0.2 kg/m3
